Reference: ChEMBL document CHEMBL1141275, “Sesquiterpenoids from Bombax malabaricum” (J Nat Prod, 2007)
Activity calls are given as the source filed them. The rule behind the calls is not given here.

How the values were obtained:
Type in all cases: functional, cell-based
HGC-27 = test: Cytotoxicity against human HGC27 cells by MTT assay
A549 = test: Cytotoxicity against human A549 cells by MTT assay
HeLa = test: Cytotoxicity against human HeLa cells by MTT assay

Row | SMILES | IC50 (HGC-27) | further results
1 | Cc1cc2c(cc1O)[C@@](C)(O)C(=O)C=C2C(C)C [LACINILENE C] | > 10 µM | –
2 | CC(=O)O[C@H]1C(=O)[C@@]2(C)[C@H]([C@H](OC(=O)c3ccccc3)[C@]3(O)C[C@H](OC(=O)[C@H](O)[C@@H](NC(=O)c4ccccc4)c4ccccc4)C(C)=C1C3(C)C)[C@]1(OC(C)=O)CO[C@@H]1C[C@@H]2O [PACLITAXEL] | 0.778 µM | IC50 (A549): 0.0126 µM; IC50 (HeLa): 0.0056 µM
3 | COc1c(C)cc2c(C(C)C)cc(O)c3c2c1OC3=O | > 10 µM | –
4 | COc1c(O)c(C)cc2c1C(=O)C(=O)C=C2C(C)C [BOMBAMALONE C] | > 10 µM | –
5 | COc1c(O)c(C)cc2c(C(C)C)cc(O)c(C=O)c12 | > 10 µM | –
6 | CC1=C2OC(C)(C)c3cc(O[C@@H]4O[C@H](CO)[C@@H](O)[C@H](O)[C@H]4O)c(C(=O)O)c(c32)C(=O)C1=O [BOMBAMALOSIDE] | > 10 µM | –
7 | CC1=C2OC(C)(C)c3cc4c(c(c32)C(=O)C1=O)C(C)(O)C=CO4 (stereo not drawn) [BOMBAMALONE B] | > 10 µM | Activity (A549): inactive; Activity (HeLa): inactive
8 | COC1=C(C)C(=O)c2c(C(C)C)cc(O)c(C(=O)O)c2C1=O | > 10 µM | –
9 | COC1=C2OC(=O)c3c(O)cc(C(C)C)c(c32)C(=O)C1(C)O (stereo not drawn) [BOMBAMALONE A] | > 10 µM | –
